Where two headings read alike, the source gives them in different places. Marks after values point to notes of the source that are not given here.
Tests used:
[1] = tested on: patients; test: Topical solution on periodontal, enamel and dentin condition; format: in vivo, human; details: for Efficacy on a 4-point scale (periodontal, enamel and dentin condition): humans, topical
Text: Studies of the effects of Phenotropil on condition of paradontium, enamel and dentin with topic application involved men and women (45-54 years) diagnosed with periodontitis, parodontosis and caries. Enrollment of groups by separate indicators in this age failed. In the vast majority of subjects, the diseases were combined. The gender ratio in groups was: 30.0% men and 70.0% women, the ratio of smokers to non-smokers 60:40, the number of female smokers was higher than male smokers by 35.0%. All patients received every three days the required amount of 0.1%, 0.2% or 0.3% solution of Phenotropil or placebo. The solutions were applied daily as dental trays (for 30 sec.) in the morning and evening at 30 ml per application for 30 days. Food and drinks intake, including water, were not recommended for 2 hours after the procedure. All patients underwent a dental check-up and standard hygienic treatment with removing plaque and dental scale and lavaging the gingival pockets with 1% Phenotropil solution. For each subject, the studied parameters were recorded; the aggregate integral indicator of the general periodontal condition of enamel and dentin was calculated, in the negative scores. The examinations were conducted once a week throughout the period of monotherapy. Simultaneous studies were conducted for evaluation of lipid peroxidation state in samples of saliva, at the baseline examination and after the course of therapy.
The positive effect of treatment with Phenotropil was observed after about 14 days and intensified in the course of therapy. Efficacy after one month of treatment with the drug was the highest and most evident at the initial stages of disease and moderate severity of […]. Effect on periodontitis was apparent, but less pronounced. Treatment of periodontitis probably requires a longer course and administration of Phenotropil tablets according to the usual regime to modulate the general functional state of the body. The ranking evaluation of efficacy (0—no effect, 1—slightly pronounced effect below 30.0% in the group, 2—average degree of efficacy from 30.0 to 50.0%, 3—high efficacy, above 50.0%) was established by an integral indicator of the aggregate of all the parameters tested.

[2] = Slendering effect, body weight and rating scales in obese humans; format: in vivo, human; details: for Body weight (%): adult humans, change vs background (not treated) = 100; for decrease of body weight: obese women
Experimental: A study of the slendering effect of Phenotropil (100, 200 and 300 mg once a day for 30 days) in women (37-65 years) with alimentary constitutional obesity and non-obese groups (males and females 23-47 years) are presented in Table 26. The control groups received placebo tablets. The nutrition regimen and ration were not regulated; no recommendations on calories or regimen were given. The purpose of the study was to identify the effect of the drug without the influence of the diet. To assess the condition before and after treatment, in addition to the measurement of body weight, the dynamics of the general clinical condition was studied: asthenia scale MFI-20, Hospital Anxiety and Depression Scale, the quality of life scale SF-36. The questionnaires were completed twice: one day before treatment and the next day after the end of treatment.

[3] = tested on: rats; test: Carrageenan-induced paw edema; format: in vivo; details: 100 mg/kg intragastrically 60 minutes before carrageenan
Experimental: To identify and assess the anti-inflammatory action of Phenotropil, a standard technique was used; the carrageenan-induced paw edema in rats (Winter C. et al, 1962). Phenotropil at a dose of 100 mg/kg was administered intragastrically 60 minutes before carrageenan. Control animals received distilled water. Additionally, the topical application by method of formalin induced edema was investigated (subplantar administration of 0.1 ml of 2% formalin solution). Phenotropil for topical use was prepared (1:1) on the standard ointment base carrier at 100 mg/kg of body weight for each animal (150-220 g). The preparation was rubbed in the leg and a gauze patch was applied for 2 hours and 1 hour before the induction of inflammation.

[4] = tested on: mice; format: in vivo; details: for Mortality: mice
Experimental: Chemical convulsive agents (bicuculline, corazol, thiosemicarbazide, and picrotoxin) and the maximum electroconvulsive shock (ECS) model in the experiment the different types of seizures with their various implementation mechanisms of pathological conditions. The anticonvulsant activity of Phenotropil after a single dose for all the investigated models manifests in a pronounced positive effect on prevention of mortality in the studied doses of 100, 300, 400, 600 mg/kg. In case of bicuculline-induced seizures, mortality in the control group was 70.0%. Phenotropil (100, 300, 600 mg/kg) was effective in 100% of cases. The metrazole-induced mortality in the control was 60.0% and the positive effect of Phenotropil for mortality vs control was 45-35-0%, depending on the dose, respectively. The thiosemicarbazide-induced mortality was 90.0% in the control group, while when treated with Phenotropil (100, 300, 600 mg/kg), respectively: 60-0-0%. […] In case of MES, mortality in the control group was 100.0%, while in the Phenotropil groups (100, 300, 400 mg/kg) it was 20-0-0%, respectively. […] The anticonvulsant effect of Phenotropil prevents the development of seizures and affects the outcome of convulsive states, preventing mortality in all applied models of seizures in animals. The mechanisms of action of anticonvulsant activity of Phenotropil are probably also commensurate, various and depend on the initial state.

NC(=O)CN1CC(c2ccccc2)CC1=O (racemic) [Compound 1, (RS)-2-(2-oxo-4-phenylpyrrolidine-1-yl)acetamide]
smokers who quit smoking at the third week of therapy ([1]; 0.1-0.3% solution as dental trays, 30 days): 25.0% | Efficacy on a 4-point scale (periodontal, enamel and dentin condition) ([1]; Phenotropil 1%): 2* (average degree of efficacy from 30.0 to 50.0%) | Efficacy on a 4-point scale (periodontal, enamel and dentin condition) ([1]; Phenotropil 2%): 3* (high efficacy, above 50.0%) | Efficacy on a 4-point scale (periodontal, enamel and dentin condition) ([1]; Phenotropil 3%): 3* (high efficacy, above 50.0%) | Body weight (%) ([2]; 100 mg/day): −12.0 * % | Body weight (%) ([2]; 200 mg/day): −15.0 * % | Body weight (%) ([2]; 300 mg/day): −17.8 * % | positive effect on cramps when urinating, patients ([2]; comorbidities): 5 of 5 | positive effect on lost ability to sense and discriminate odors, patients ([2]; comorbidities): 11 of 18 | positive effect on prostatitis, patients ([2]; comorbidities): 3 of 3 | positive trend in chronic sinusitis, patients ([2]; comorbidities): 8 of 8 | decrease of body weight ([2]; 100 mg once a day 30 days): 12% | decrease of body weight ([2]; 200 mg once a day 30 days): 15% | decrease of body weight ([2]; 300 mg once a day 30 days): 18% | decrease of anxiety and depression, on average ([2]; rating scales after 30 days): more than 60% | decrease of indicators of fatigue ([2]; rating scales after 30 days): 92% | shortening of inflammation vs control [3]: 52.3% | effective against mortality, % of cases ([4]; bicuculline-induced seizures, 100, 300, 600 mg/kg): 100% | Mortality ([4]; Bicuculline 3.0 mg/kg + 100.0 mg/kg): 0* % | Mortality ([4]; Bicuculline 3.0 mg/kg + 300.0 mg/kg): 0* % | Mortality ([4]; Corazol 110.0 mg/kg + 100.0 mg/kg, listed as Phenotropil): 45% | Mortality ([4]; Corazol 110.0 mg/kg + 300.0 mg/kg, listed as Phenotropil): 35% | Mortality ([4]; Corazol 110.0 mg/kg + 600.0 mg/kg, listed as Phenotropil): 0% | Mortality ([4]; MES + 100.0 mg/kg, listed as Phenotropil, 100 mg/kg): 20% | Mortality ([4]; MES + 300.0 mg/kg, listed as Phenotropil, 300 mg/kg): 0% | Mortality ([4]; MES + 400.0 mg/kg, listed as Phenotropil, 400 mg/kg): 0% | Mortality ([4]; Thiosemicarbazide 18.0 mg/kg + 100.0 mg/kg, listed as Phenotropil): 60% | Mortality ([4]; Thiosemicarbazide 18.0 mg/kg + 300.0 mg/kg, listed as Phenotropil): 0% | Mortality ([4]; Thiosemicarbazide 18.0 mg/kg + 600.0 mg/kg, listed as Phenotropil): 0%
